Results reported in patent US10681909B2, “Herbicidal triazoles” (FMC Corporation, priority 2014, dated 2020).

Legend:
galium = experiment: Test D preemergence; format: in vivo, Galium aparine; conditions: for Plant response rating (0 to 100), Galium: 16 g ai/ha, 0 is no effect, 100 is complete control; for Plant response rating: Galium: scale 0 to 100
Source text: (§1) Seeds of plant species selected from bluegrass (annual bluegrass, Poa annua), blackgrass (Alopecurus myosuroides), canarygrass (Phalaris minor), chickweed (common chickweed, Stellaria media), galium (catchweed bedstraw, Galium aparine), bromegrass, down (downy bromegrass, Bromus tectorum), Russian thistle (Salsola kali), field poppy (Papaver rhoeas), field violet (Viola arvensis), foxtail, green (green foxtail, Setaria viridis), deadnettle (henbit deadnettle, Lamium amplexicaule), ryegrass, Ital. (Italian ryegrass, Lolium multiflorum), kochia (Kochia scoparia), lambsquarters (Chenopodium album), oilseed rape (Brassica napus), pigweed (Amaranthus retroflexus), chamomile (scentless chamomile, Matricaria inodora), speedwell (bird's-eye speedwell, Veronica persica), barley, spring (spring barley, Hordeum vulgare), wheat, spring (spring wheat, Triticum aestivum), buckwheat, wild (wild buckwheat, Polygonum convolvulus), wild mustard (Sinapis arvensis), oat, wild (wild oat, Avena fatua), radish, wild (wild radish, Raphanus raphanistrum), […]), barley, winter (winter barley, Hordeum vulgare), and wheat, winter (winter wheat, Triticum aestivum) were planted into a silt loam soil and treated preemergence with test chemicals formulated in a non-phytotoxic solvent mixture which included a surfactant. At the same time, these species were planted in pots containing Sunshine Redi-Earth® planting medium comprising spaghnum peat moss, vermiculite, starter nutrients and dolomitic limestone and treated with postemergence applications of the test chemicals formulated in the same manner. Plants ranged in height from 2 to 18 cm (1- to 4-leaf stage). Treated plants and controls were maintained in a controlled growth environment for 14 to 21 d after which time all species were compared to controls and visually evaluated. […] A dash (-) response means no test result.

wild mustard = experiment: Test D postemergence; format: in vivo, Sinapis arvensis; conditions: scale 0 to 100
Source text: as §1

barnyardgrass = experiment: Test C preemergence; format: in vivo, Echinochloa crus-galli; conditions: for Plant response rating (scale of 0 to 100 where 0 is no effect and 100 is complete control): Barnyardgrass, preemergence; for Barnyardgrass plant response rating (0 to 100): Preemergence, visual rating after 13 to 15 d
Source text: (§2) Seeds of plant species selected from blackgrass (Alopecurus myosuroides), ryegrass, Italian (Italian ryegrass, Lolium multiflorum), wheat (winter wheat, Triticum aestivum), galium (catchweed bedstraw, Galium aparine), corn (Zea mays), crabgrass, large (large crabgrass, Digitaria sanguinalis), foxtail, giant, (giant foxtail, Setaria faberii), johnsongrass (Sorghum halepense), lambsquarters (Chenopodium album), morningglory (Ipomoea coccinea), nutsedge, yellow (yellow nutsedge, Cyperus esculentus), pigweed (Amaranthus retroflexus), ragweed (common ragweed, Ambrosia elatior), soybean (Glycine max), barnyardgrass (Echinochloa crus-galli), oilseed rape (Brassica napus), waterhemp (common waterhemp, Amaranthus rudis), and velvetleaf (Abutilon theophrasti) were planted into a blend of loam soil and sand and treated preemergence with test chemicals formulated in a non-phytotoxic solvent mixture which included a surfactant. At the same time, plants selected from these crop and weed species and also chickweed (common chickweed, Stellaria media), oat, wild (wild oat, Avena fatua), and kochia (Kochia scoparia), were planted in pots containing Sunshine Redi-Earth® planting medium comprising spaghnum peat moss, vermiculite, starter nutrients and dolomitic limestone and treated with postemergence applications of test chemicals formulated in the same manner. Plants ranged in height from 2 to 18 cm (1- to 4-leaf stage) for postemergence treatments. […] A dash (-) response means no test result.

field poppy = experiment: Test D postemergence; format: in vivo, Papaver rhoeas; conditions: scale 0 to 100
Source text: as §1

wheat, spring = experiment: Test D preemergence; format: in vivo, Triticum aestivum; conditions: for Plant response rating (0 to 100), Wheat, Spring: 16 g ai/ha, 0 is no effect, 100 is complete control; for Plant response rating: Wheat, Spring: scale 0 to 100
Source text: as §1

wheat, winter = experiment: Test D preemergence; format: in vivo, Triticum aestivum; conditions: for Plant response rating (0 to 100), Wheat, Winter: 16 g ai/ha, 0 is no effect, 100 is complete control; for Plant response rating: Wheat, Winter: scale 0 to 100
Source text: as §1

ryegrass, Italian = experiment: Test C preemergence; format: in vivo, Lolium multiflorum; conditions: for Ryegrass, Italian plant response rating (0 to 100): Preemergence, visual rating after 13 to 15 d; for Plant response rating (scale of 0 to 100 where 0 is no effect and 100 is complete control): Ryegrass, Italian, preemergence
Source text: as §2

ryegrass, Ital. = experiment: Test D postemergence; format: in vivo, Lolium multiflorum; conditions: scale 0 to 100
Source text: as §1

pigweed [1] = experiment: Test D preemergence; format: in vivo, Amaranthus retroflexus; conditions: for Plant response rating (0 to 100), Pigweed: 16 g ai/ha, 0 is no effect, 100 is complete control; for Plant response rating: Pigweed: scale 0 to 100
Source text: as §1

chamomile [2] = experiment: Test D preemergence; format: in vivo, Matricaria inodora; conditions: for Plant response rating (0 to 100), Chamomile: 16 g ai/ha, 0 is no effect, 100 is complete control; for Plant response rating: Chamomile: scale 0 to 100
Source text: as §1

pigweed [3] = experiment: Test D postemergence; format: in vivo, Amaranthus retroflexus; conditions: scale 0 to 100
Source text: as §1

deadnettle = experiment: Test D postemergence; format: in vivo, Lamium amplexicaule; conditions: scale 0 to 100
Source text: as §1

chamomile [4] = experiment: Test D postemergence; format: in vivo, Matricaria inodora; conditions: scale 0 to 100
Source text: as §1

FC(F)(F)COc1nc(-c2ccc(Cl)cc2)nn1Cc1ccnc(C(F)(F)F)c1 [Compound 31]
Plant response rating (0 to 100), Galium (galium): 70 | Plant response rating: Galium (galium; 62 g ai/ha): 80 | Plant response rating: Galium (galium; 125 g ai/ha): 90 | Plant response rating: Mustard, Wild (wild mustard; 16 g ai/ha): 100 | Plant response rating: Mustard, Wild (wild mustard; 31 g ai/ha): 100 | Plant response rating: Mustard, Wild (wild mustard; 62 g ai/ha): 100 | Plant response rating: Mustard, Wild (wild mustard; 125 g ai/ha): 100 | Plant response rating (scale of 0 to 100 where 0 is no effect and 100 is complete control) (barnyardgrass; 125 g ai/ha): 90 | Plant response rating (scale of 0 to 100 where 0 is no effect and 100 is complete control) (barnyardgrass; 250 g ai/ha): 95 | Barnyardgrass plant response rating (0 to 100) (barnyardgrass; 31 g ai/ha): 70 | Barnyardgrass plant response rating (0 to 100) (barnyardgrass; 62 g ai/ha): 80 | Plant response rating: Field Poppy (field poppy; 16 g ai/ha): 75 | Plant response rating: Field Poppy (field poppy; 31 g ai/ha): 80 | Plant response rating: Field Poppy (field poppy; 62 g ai/ha): 98 | Plant response rating: Field Poppy (field poppy; 125 g ai/ha): 100 | Plant response rating (0 to 100), Wheat, Spring (wheat, spring): 30 | Plant response rating: Wheat, Spring (wheat, spring; 62 g ai/ha): 40 | Plant response rating: Wheat, Spring (wheat, spring; 125 g ai/ha): 45 | Plant response rating (0 to 100), Wheat, Winter (wheat, winter): 20 | Plant response rating: Wheat, Winter (wheat, winter; 62 g ai/ha): 20 | Plant response rating: Wheat, Winter (wheat, winter; 125 g ai/ha): 30 | Ryegrass, Italian plant response rating (0 to 100) (ryegrass, Italian; 31 g ai/ha): 50 | Ryegrass, Italian plant response rating (0 to 100) (ryegrass, Italian; 62 g ai/ha): 60 | Plant response rating (scale of 0 to 100 where 0 is no effect and 100 is complete control) (ryegrass, Italian; 125 g ai/ha): 90 | Plant response rating (scale of 0 to 100 where 0 is no effect and 100 is complete control) (ryegrass, Italian; 250 g ai/ha): 90 | Plant response rating: Ryegrass, Ital. (ryegrass, Ital.; 16 g ai/ha): 25 | Plant response rating: Ryegrass, Ital. (ryegrass, Ital.; 31 g ai/ha): 30 | Plant response rating: Ryegrass, Ital. (ryegrass, Ital.; 62 g ai/ha): 55 | Plant response rating: Ryegrass, Ital. (ryegrass, Ital.; 125 g ai/ha): 65 | Plant response rating (0 to 100), Pigweed (pigweed [1]): 100 | Plant response rating: Pigweed (pigweed [1]; 62 g ai/ha): 100 | Plant response rating: Pigweed (pigweed [1]; 125 g ai/ha): 100 | Plant response rating (0 to 100), Chamomile (chamomile [2]): 30 | Plant response rating: Chamomile (chamomile [2]; 31 g ai/ha): 95 | Plant response rating: Chamomile (chamomile [2]; 62 g ai/ha): 100 | Plant response rating: Chamomile (chamomile [2]; 125 g ai/ha): 100 | Plant response rating: Pigweed (pigweed [3]; 16 g ai/ha): 100 | Plant response rating: Pigweed (pigweed [3]; 31 g ai/ha): 100 | Plant response rating: Pigweed (pigweed [3]; 62 g ai/ha): 100 | Plant response rating: Pigweed (pigweed [3]; 125 g ai/ha): 100 | Plant response rating: Deadnettle (deadnettle; 16 g ai/ha): 75 | Plant response rating: Deadnettle (deadnettle; 31 g ai/ha): 75 | Plant response rating: Deadnettle (deadnettle; 62 g ai/ha): 80 | Plant response rating: Deadnettle (deadnettle; 125 g ai/ha): 95 | Plant response rating: Chamomile (chamomile [4]; 16 g ai/ha): 20 | Plant response rating: Chamomile (chamomile [4]; 31 g ai/ha): 35 | Plant response rating: Chamomile (chamomile [4]; 62 g ai/ha): 65 | Plant response rating: Chamomile (chamomile [4]; 125 g ai/ha): 80

Fc1ccc(-c2nc(OCC(F)(F)F)n(Cc3ccnc(C(F)(F)F)c3)n2)cc1 [Compound 30]
Plant response rating (0 to 100), Galium (galium): 70 | Plant response rating: Galium (galium; 62 g ai/ha): 80 | Plant response rating: Galium (galium; 125 g ai/ha): 85 | Plant response rating: Mustard, Wild (wild mustard; 16 g ai/ha): 90 | Plant response rating: Mustard, Wild (wild mustard; 31 g ai/ha): 100 | Plant response rating: Mustard, Wild (wild mustard; 62 g ai/ha): 100 | Plant response rating: Mustard, Wild (wild mustard; 125 g ai/ha): 100 | Plant response rating (scale of 0 to 100 where 0 is no effect and 100 is complete control) (barnyardgrass; 125 g ai/ha): 85 | Plant response rating (scale of 0 to 100 where 0 is no effect and 100 is complete control) (barnyardgrass; 250 g ai/ha): 98 | Barnyardgrass plant response rating (0 to 100) (barnyardgrass; 31 g ai/ha): 40 | Barnyardgrass plant response rating (0 to 100) (barnyardgrass; 62 g ai/ha): 85 | Plant response rating: Field Poppy (field poppy; 16 g ai/ha): 70 | Plant response rating: Field Poppy (field poppy; 31 g ai/ha): 90 | Plant response rating: Field Poppy (field poppy; 62 g ai/ha): 98 | Plant response rating: Field Poppy (field poppy; 125 g ai/ha): 100 | Plant response rating (0 to 100), Wheat, Spring (wheat, spring): 25 | Plant response rating: Wheat, Spring (wheat, spring; 62 g ai/ha): 35 | Plant response rating: Wheat, Spring (wheat, spring; 125 g ai/ha): 45 | Plant response rating (0 to 100), Wheat, Winter (wheat, winter): 15 | Plant response rating: Wheat, Winter (wheat, winter; 62 g ai/ha): 25 | Plant response rating: Wheat, Winter (wheat, winter; 125 g ai/ha): 35 | Ryegrass, Italian plant response rating (0 to 100) (ryegrass, Italian; 31 g ai/ha): 5 | Ryegrass, Italian plant response rating (0 to 100) (ryegrass, Italian; 62 g ai/ha): 60 | Plant response rating (scale of 0 to 100 where 0 is no effect and 100 is complete control) (ryegrass, Italian; 125 g ai/ha): 70 | Plant response rating (scale of 0 to 100 where 0 is no effect and 100 is complete control) (ryegrass, Italian; 250 g ai/ha): 70 | Plant response rating: Ryegrass, Ital. (ryegrass, Ital.; 16 g ai/ha): 35 | Plant response rating: Ryegrass, Ital. (ryegrass, Ital.; 31 g ai/ha): 60 | Plant response rating: Ryegrass, Ital. (ryegrass, Ital.; 62 g ai/ha): 65 | Plant response rating: Ryegrass, Ital. (ryegrass, Ital.; 125 g ai/ha): 70 | Plant response rating (0 to 100), Pigweed (pigweed [1]): 100 | Plant response rating: Pigweed (pigweed [1]; 62 g ai/ha): 100 | Plant response rating: Pigweed (pigweed [1]; 125 g ai/ha): 100 | Plant response rating (0 to 100), Chamomile (chamomile [2]): 30 | Plant response rating: Chamomile (chamomile [2]; 31 g ai/ha): 40 | Plant response rating: Chamomile (chamomile [2]; 62 g ai/ha): 100 | Plant response rating: Chamomile (chamomile [2]; 125 g ai/ha): 100 | Plant response rating: Pigweed (pigweed [3]; 16 g ai/ha): 100 | Plant response rating: Pigweed (pigweed [3]; 31 g ai/ha): 100 | Plant response rating: Pigweed (pigweed [3]; 62 g ai/ha): 100 | Plant response rating: Pigweed (pigweed [3]; 125 g ai/ha): 100 | Plant response rating: Deadnettle (deadnettle; 16 g ai/ha): 70 | Plant response rating: Deadnettle (deadnettle; 31 g ai/ha): 75 | Plant response rating: Deadnettle (deadnettle; 62 g ai/ha): 90 | Plant response rating: Deadnettle (deadnettle; 125 g ai/ha): 100 | Plant response rating: Chamomile (chamomile [4]; 16 g ai/ha): 20 | Plant response rating: Chamomile (chamomile [4]; 31 g ai/ha): 30 | Plant response rating: Chamomile (chamomile [4]; 62 g ai/ha): 40 | Plant response rating: Chamomile (chamomile [4]; 125 g ai/ha): 70
